Laboratory results reported in PMC6115460, “Extreme amyloid polymorphism in Staphylococcus aureus virulent PSMα peptides” (Nature Communications, 2018).

What was measured:
[1] = test system: Micrococcus luteus; experiment: Disc diffusion assay testing antibacterial activity; type: cell-based; conditions: peptide 50 mg ml−1 in ultra-pure water (LFKFFK, KLFKFFK) or DMSO (IIKVIK, IIKIIK) loaded on discs, LB-agar, incubated over-night, coincides with activity in solution (Supplementary Fig. 4)
Experimental: (§1) Micrococcus luteus (an environmental isolate) was a kind gift from Prof. Charles Greenblatt from the Hebrew university in Jerusalem, Israel. An inoculum was grown in Luria-Bertani (LB) medium at 30 °C with 220 rpm shaking overnight. Staphylococcus hominis (ATTC 27844) and Staphylococcus aureus (ATCC 25923) were purchased from ATCC, USA. An inoculum was grown in brain-heart infusion (BHI) media at 37 °C with 220 rpm shaking overnight.
(§2) Bacterial cultures were grown overnight as described above and diluted 1000-fold to a fresh media until growth reached to optical density of ~0.4 measured at 600 nm (OD600). The refreshed cultures were plated on LB-agar or BHI-agar according to the bacterial strain. The antibacterial activity of PSMα segments was examined: Lyophilized peptides were dissolved in ultra-pure water (LFKFFK and KLFKFFK) or DMSO (IIKVIK and IIKIIK) to a final concentration of 50 mg ml^−1. The concentrated peptide solutions were loaded on blank antimicrobial susceptibility discs (Oxoid, UK). Discs loaded with ultra-pure water or DMSO were used as controls. The discs were gently placed on bacteria plated agar and incubated over-night at the appropriate temperatures.

[2] = test system: Staphylococcus hominis; experiment: as above; type: cell-based; conditions: ATTC 27844, peptide 50 mg ml−1 in ultra-pure water (LFKFFK, KLFKFFK) or DMSO (IIKVIK, IIKIIK) loaded on discs, BHI-agar, incubated over-night, coincides with activity in solution (Supplementary Fig. 4)
Experimental: as §1, §2

[3] = Fibril formation by transmission electron microscopy; type: physicochemical; conditions: negative stain TEM
Experimental: Fibrillated PSMα1 and PSMα4 samples were collected following the ThT fibrillation kinetics assay (as described above) by combining the contents of 2–3 wells from the plate. Solutions were centrifuged at 21,000 × g and the supernatant was discarded. The pellet containing the fibrils was re-suspended in 20 μl of ultra-pure water.
Fibril formation of the short segments, IIKIIK, IIKVIK, LFKFFK and KLFKFFK, was examined for peptides dissolved directly from the powder form. IIKVIK from PSMα1 and IIKIIK from PSMα4 were re-suspended to 20 mM with 75% DMSO in ultra-pure water and incubated for about 1 week at room temperature (Fig. 2b). LFKFFK and KLFKFFK from PSMα3 were re-suspended in ultra-pure water to 10 mM. LFKFFK was incubated for about a month and KLFKFFK was incubated for 14 days at room temperature (Fig. 3b).
Five-microliter samples were applied directly onto copper TEM grids with support films of Formvar/Carbon (Ted Pella), which were charged by glow-discharge (PELCO easiGlow, Ted Pella) immediately before use. Grids were allowed to adhere for 2 min and negatively stained with 5 μl of 2% uranyl acetate solution. Micrographs were recorded using FEI Tecnai G2 T20 S-Twin transmission electron microscope operated at an accelerating voltage of 200 KeV (located at the Department of Materials Science & Engineering at the Technion, Israel), FEI Tecnai G2 T12 TEM operated at an accelerating voltage of 120 kV (located at the Russell Berrie Electron Microscopy Center of Soft Matter at the Technion, Israel). Images were recorded digitally by a Gatan US 1000 CCD camera using the DigitalMicrograph® software.

[4] = Fibril thermal-stability assay (TEM); type: physicochemical; conditions: 10 mM (LFKFFK in ultra-pure water, IIKIIK in DMSO), 3 days at room temperature, 50 °C for 5 min, then cooled at room temperature 20 min
Experimental: For the fibril thermal-stability assay (Fig. 5), peptides were dissolved to 10 mM (LFKFFK in ultra-pure water and IIKIIK in DMSO) and incubated at room temperature for 3 days. Samples were applied directly onto copper TEM grids and stained as described above. The samples were then incubated at 50 °C in a pre-heated thermoblock for 5 min and immediately applied onto TEM grids. The samples were then allowed to cool down at room temperature for 20 min and applied onto TEM grids. Micrographs were recorded as described above.

[5] = test system: Staphylococcus aureus; experiment: Disc diffusion assay testing antibacterial activity; type: cell-based; conditions: ATCC 25923, peptide 50 mg ml−1 in ultra-pure water loaded on discs, BHI-agar, incubated over-night
Experimental: as §1, §2

[6] = Thioflavin T fluorescence fibrillation kinetics assay; conditions: 50 µM peptide, 200 µM ThT; Tris buffer pH 7.5 (PSMα1 and mutant) or ultra-pure water (PSMα4 and mutant); 37 °C; about 100 h; mean of triplicates
Experimental: Final concentrations for each reaction were 50 µM peptide (PSMα1, PSMα4, or their mutants) and 200 µM ThT. Blank solutions were also prepared for each reaction, containing everything but the peptides. The reaction mixture was carried out in a black 96-well flat-bottom plate (Greiner bio-one) covered with a thermal seal film (EXCEL scientific) and incubated in a plate reader (CLARIOstar BMG LABTECH) at a temperature of 37 °C with 500 rpm shaking for 85 s before each reading cycle, and up to 1000 cycles of 6 min each. Measurements were made in triplicates. Fluorescence was measured by excitation at 438 ± 20 nm and emission at 490 ± 20 nm over a period of about 100 h. All triplicate values were averaged, appropriate blanks were subtracted, and the resulting values were plotted against time. Calculated standard errors of the mean are presented as error bars. The entire experiment was repeated at least three times on different days.

[7] = 20 mM in 75% DMSO in ultra-pure water, about 1 week at room temperature
[8] = 10 mM in ultra-pure water, room temperature, LFKFFK about a month, KLFKFFK 14 days

Row | Substance | antibacterial activity against M. luteus [1] | antibacterial activity against S. hominis [2] | fibril formation, electron micrographs [3, 7] | thermal stability of fibrils [4] | toxicity to S. aureus [5] | fibril formation, electron micrographs [3, 8] | Thioflavin T binding [6]
1 | IIKIIK [spine segment of PSMα4; acetylated N-terminus and amidated C-terminus, or unmodified termini for crystallography] | do not elicit antibacterial activity | do not elicit antibacterial activity | fibrils | remain stable | – | – | –
2 | IIKVIK [spine segment of PSMα1; acetylated N-terminus and amidated C-terminus, or unmodified termini for crystallography] | do not elicit antibacterial activity | do not elicit antibacterial activity | fibrils | – | – | – | –
3 | KLFKFFK [one-residue longer PSMα3 segment] | dose-dependent antibacterial activity | dose-dependent antibacterial activity | – | – | not toxic | straight and twisted crystalline fibrils | –
4 | LFKFFK [truncated segment of PSMα3; acetylated N-terminus and amidated C-terminus, or unmodified termini for crystallography] | dose-dependent antibacterial activity | dose-dependent antibacterial activity | – | dissolve upon heating to 50 °C, and reform upon cooling | not toxic | fibrils and nano-crystals | –
5 | MAIVGTIPKPIKAIIDIFAK | – | – | – | – | – | – | no ThT binding
6 | MGIIAGPIPVIKSLIEQFTGK | – | – | – | – | – | – | no ThT binding
